Test results published in patent US11738031B2, “Compositions and methods for preventing or treating muscle conditions” (The Board of Trustees of the Leland Stanford Junior …, priority 2017, dated 2023).
Like-named read-outs stand apart in the source and are kept apart here.

What was measured:
[1] = cited from earlier work; for half-life: in vivo
[2] = system: MuSCs; test: VisionBlue metabolic viability dose-response assay; type: cell-based, mouse; settings: dose-response 1-200 ng/ml PGE2
Description: Proliferation assays: To assay proliferation, we used three different assays (hemocytometer, VisionBlue, and EdU). For each, we seeded MuSCs on flat hydrogels (hemocytometer and VisionBlue) or collagen-coated plates (EdU assay) at a density of 500 cells per cm^2 surface area. For hemocytometer cell number count, we collected cells at indicated timepoints by incubation with 0.5% trypsin in PBS for 5 min at 37° C. and quantified them using a hemocytometer at least 3 times. Additionally, we used the VisionBlue Quick Cell Viability Fluorometric Assay Kit (BioVision, catalog #K303) as a readout for cell growth in culture. Briefly, we incubated MuSCs with 10% VisionBlue in culture medium for 3 h, and measured fluorescence intensity on a fluorescence plate reader (Infinite M1000 PRO, Tecan) at Ex=530-570 nm, Em=590-620 nm. […] We quantified EdU positive cells using the MetaMorph Image Analysis software (Molecular Devices). Data analyses were blinded, where researchers performing cell scoring were unaware of the treatment condition given to sample groups analyzed.
To assay proliferation, we used three different assays (hemocytometer, VisionBlue, and EdU). […] For hemocytometer cell number count, we collected cells at indicated timepoints by incubation with 0.5% trypsin in PBS for 5 min at 37° C. and quantified them using a hemocytometer at least 3 times. […]

[3] = system: Nurr1; test: Nurr1 expression in MuSCs (qRT-PCR, flow cytometry); type: cell-based, mouse; settings: 24 hr PGE2 treatment in culture
Description: We analyzed NURR1 levels by flow cytometry using myogenic progenitors after a 24 hr treatment of vehicle (DMSO) or PGE2 (10 ng/ml), or from MuSCs transfected with shSCR or shNurr1 (see Knockdown assays section). We collected cells by incubation with 0.5% trypsin in PBS for 2 min at 37° C. We fixed the cells using 1.6% paraformaldehyde in PBS and then permeabilized them in ice-cold methanol. We then blocked them in staining buffer (0.5% BSA in PBS) for 30 min at room temperature and stained them with a Mouse monoclonal anti-Nurr1 (Abcam, catalog #ab41917, 1:75) primary antibody or anti-mouse IgG control (Jackson ImmunoResearch Laboratories). […] We analyzed the cells on a FACS LSR II cytometer using FACSDiva software (BD Biosciences) in the Stanford Shared FACS Facility, purchased using an NIH S10 Shared Instrument Grant (S10RR027431-01).
We isolated RNA from MuSCs using the RNeasy Micro Kit (Qiagen). […] To quantify relative transcript levels, we used 2^ΔΔCt to compare treated and untreated samples and expressed the results relative to Gapdh. […] TaqMan Assays (Applied Biosystems) were used to quantify Pax7, Myogenin, Nurr1, Ptger3 and Ptger4 in samples according to the manufacturer instructions with the TaqMan Universal PCR Master Mix reagent kit (Applied Biosystems). […]

CCCCC[C@H](O)/C=C/[C@H]1[C@H](O)CC(=O)[C@@H]1C/C=C\CCCC(=O)O [PGE2, prostaglandin E2]
half-life in vivo [1]: relatively short
half-life [1]: 5 min
half-life ([1]; listed as Dinoprostone): less than 5 minutes
lowest drug concentration that promotes a robust MuSC proliferation response [2]: 10 ng/mL
Nurr1 mRNA and protein expression [3]: increased Nurr1 mRNA and protein expression
